Data set [1] can be described thus: Tolerance and immunosuppression of angiostatic steroids. The method, then: The doses were: 150 mg/kg of body weight/day for the first two days, 125 mg/kg of body weight/day for the next two days, 100 mg/kg of body weight/day for the next two days, and then a maintenance dose of 75 mg/kg of body weight/day was used for the remaining duration of the treatment, for a total of 20-25 days. […] Therefore, the dosage rate of steroids might also be adjusted, according to the patients' response, which is left to the clinician;

For data set [2] the following is noted: in vivo; cited from earlier work.
A further data set relates to tumor cells. In words: Antitumor activity of individual maltose palmitates (summary statements). The data set is classed as in vivo. Particulars: comparison of maltose palmitates.
Data set [3] can be described thus: Degradation of labelled maltose palmitates in tissues (14C/3H ratio of ethanolic extract). Details: species or system mice. Particulars: mouse, in vivo. The method, then: The ^3 H-palmitoyl chloride and the ^14 C-maltose (as prepared earlier) were mixed in a total volume of 500 μl of dimethyl formamide (DMF). To the mixture was added 100 μl pyridine and the contents were heated for 14 h at 60° C. in a nitrogen atmosphere. The product was then evaporated under reduced pressure at 60° C. to remove the solvents. It was dissolved in 400 μl of absolute ethanol. Pyridine hydrochloride was removed by adding the dissolved crude reaction product to 1 ml ice cold water in an Eppendorf tube. The resulting suspension was centrifuged at 4° C. for 10 min and the supernatant was discarded. The product was dried for 48 hours in a vacuum desiccator and then was extracted with three 10 μl portions of methanol at room temperature. The methanol extract was subjected to reverse phase HPLC using a methanol eluent and detection at 214 nm at a flow rate of 0.5 ml/min and a 3.9 mn×15 cm Waters Resolve C18 5μ column. Two components eluting at 19.1 and 24.1 min which corresponded to the two isomers of maltose tetrapalmitate were collected. […] The tissue extracts were analyzed for ^3 H and ^14 C for non metabolized MTP and its degradation products by scintillation counting. […]
The ratio of degradation calculated on the basis of slope of ^14 C/^3 H ratio between 24 h and 48 h, in ethanolic extract indicated the following order of degradation, with liver taken as 100: […]

Another data set has as its system C3HBA. In words: Antitumor activity of maltose palmitates against C3HBA fragment implanted s.c. in C3H/HeN females. The data set is classed as in vivo, C3H/HeN mice. The settings on record: ip. 3 times weekly, 10 μg (individual palmitates). The text has this:
The scientific and patent literature on tri-fatty acyl disaccharides is non existent. This compound has not been obtained as a single entity. The compound forms complexes and rarely appeared as a pure band in our investigations. However, when the mixture is subjected to HPLC as described in I, we obtain sufficient quantities of di, tri and tetra palmitates. This allowed us to test each of these components individually and in combinations. Briefly, the following results were obtained using C3HBA fragment implanted s.c. in C3H/HeN females.

The test system of data set [4] is cultured endothelial cells. It is filed as in vitro ADME.
The test system of another data set is Naik As cells. In words: In vitro growth inhibition of angiosarcoma cell line Naik-AS. It is filed as cell-based. The text has this: The in vitro growth of an angiosarcoma cell line (Naik-AS) developed by us was studied in the presence and absence of maltose tri- and tetrapalmitates.
The mark [5] stands for this setting: rodents, 150 down to 75 mg/kg of body weight/day, 20-25 days.

Molecules are shown by their SMILES. “Also recorded” adds a separate entry of the source.

`CC(=O)[C@@]1(O)CC[C@H]2[C@@H]3CCC4=CC(=O)CC[C@]4(C)[C@H]3CC[C@@]21C` [17-β-OH progesterone]: the “tolerance at high doses” value in data set [1] (setting [5]) was “rodents tolerate them”.

Turning to `C[C@]12CCC(=O)C=C1CC[C@@H]1[C@@H]2CC[C@@]2(C)[C@H]1CC[C@]2(O)C(=O)CO` [cortexolone], in data set [1] (in vivo), the “tolerance at high doses” value was “rodents tolerate them”.

Consider `C[C@]12CCC(=O)C=C1CC[C@@H]1[C@@H]2[C@@H](O)C[C@@]2(C)[C@H]1CC[C@]2(O)C(=O)CO` [hydrocortisone], for which, in data set [2], the immunosuppression entry was “at high doses, it is immunosuppressive; also recorded: highly immunosuppressive”. The “tolerance at high doses” value in data set [1] (setting [5]) was “rodents tolerate them”.

Take `CCCCCCCCCCCCCCCC(=O)OC[C@H]1O[C@H](O[C@H]2[C@H](O)[C@@H](O)C(OC(=O)CCCCCCCCCCCCCCC)O[C@@H]2COC(=O)CCCCCCCCCCCCCCC)[C@H](O)[C@@H](O)[C@@H]1O` (stereo partly shown) [maltose tripalmitate, maltose 1, 6, 6' tri palmitate]: in the data set with tumor cells, the “antitumor activity, in words” value was “most active component”. For the same molecule, in data set [3], the “retention time in tissues / degradation, in words” value was “followed by maltose tripalmitate”. The “Day of tumor appearance after implantation” value with C3HBA fell in the range of 14 to 16 days. The “degradation by cultured endothelial cells” value in data set [4] is “Degradation also occurred”. Also, the “% Inhibition of growth of Naik As cells in culture” value came out at 30% in the data set with Naik As cells (5 μg/ml, 30 hours); 17% in the data set on Naik As cells (5 μg/ml, 60 hours); 10% in the data set on Naik As cells (5 μg/ml, 105 hours); 25% in the data set on Naik As cells (.625 μg/ml, 30 hours); 11% with Naik As cells (.625 μg/ml, 60 hours); 4% with Naik As cells (.625 μg/ml, 105 hours). The “in vitro growth of angiosarcoma cell line (Naik-AS), in words” value with Naik As cells (time course in words) is “inhibited growth on the first 30 hours which response declined as it got degraded”.

`C[C@]12CC[C@@H](O)C[C@H]1CC[C@@H]1[C@@H]2CC[C@@]2(C)[C@H]1CC[C@]2(O)C(=O)CO` [tetra hydro S]: in data set [1] (setting [5]), the “tolerance at high doses” value is recorded as “rodents tolerate them”.

The values above are taken from patent US5625044A, “Methods for the preparation of pure homologous series of mono to tetra fatty acyl esters of sugars and pharmaceutical formulations useful in the treatment of cancer” (Goudreau Gage Dubec & Martineau, priority 1994, dated 1997).
